Assays:
[1] = tested on: IL-2 production; assay: Inhibition of IL-2 production in PHA-activated Jurkat cells (ELISA); format: cell-based; conditions: Homo sapiens, PHA 2.5 μg/mL, 20 hours
Procedure: Jurkat cells were placed in a 96 well plate (0.5 million cells per well in 1% FBS medium) then a test compound of this invention was added at different concentrations. After 10 minutes, the cells were activated with PHA (final concentration 2.5 μg/mL) and incubated for 20 hours at 37° C. under CO2. The final volume was 200 μL. Following incubation, the cells were centrifuged and the supernatants collected and stored at −70° C. prior to assaying for IL-2 production. A commercial ELISA kit (IL-2 Eli-pair, Diaclone Research, Besancon, France) was used to detect production of IL-2, from which dose response curves were obtained.

[2] = molecular target: ICRAC current in RBL cells (CRAC ion channel) (Rattus norvegicus, UniProt Q5M848); assay: Patch clamp inhibition of ICRAC current in RBL cells; format: cell-based; conditions: whole-cell patch clamp, inward current at −80 mV, read-out: IC50 (concentration which inhibits 50% of the ICRAC current)
Procedure: In general, a whole cell patch clamp method is used to examine the effects of a compound of the invention on a channel that mediates Icrac. In such experiments, a baseline measurement is established for a patched cell. Then a compound to be tested is perfused (or puffed) to cells in the external solution and the effect of the compound on Icrac is measured. A compound that modulates Icrac (e.g., inhibits) is a compound that is useful in the invention for modulating CRAC ion channel activity.
Rat basophilic leukemia cells (RBL-2H3) were grown in DMEM media supplemented with 10% fetal bovine serum in an atmosphere of 95% air/5% CO2. Cells were seeded on glass coverslips 1-3 days before use.
Membrane currents of individual cells were recorded using the whole-cell configuration of the patch clamp technique with an EPC10 (HEKA Electronik, Lambrecht, Germany). Electrodes (2-5 MΩ in resistance) were fashioned from borosilicate glass capillary tubes (Sutter Instruments, Novato, Ca). […]
ICRAC currents were monitored every 2 seconds using a 50 msec protocol, where the voltage was ramped from −100 mV to +100 mV. […]
The ICRAC current level was determined by measuring the inward current amplitude at −80 mV of the voltage ramp in an off-line analysis using MATLAB. The ICRAC current inhibition for each concentration was calculated using peak amplitude in the beginning of the experiment from the same cell. […]

ICRAC current in RBL cells (CRAC ion channel), sequence (Q5M848 whole entry, looked up, the tested form may be a part): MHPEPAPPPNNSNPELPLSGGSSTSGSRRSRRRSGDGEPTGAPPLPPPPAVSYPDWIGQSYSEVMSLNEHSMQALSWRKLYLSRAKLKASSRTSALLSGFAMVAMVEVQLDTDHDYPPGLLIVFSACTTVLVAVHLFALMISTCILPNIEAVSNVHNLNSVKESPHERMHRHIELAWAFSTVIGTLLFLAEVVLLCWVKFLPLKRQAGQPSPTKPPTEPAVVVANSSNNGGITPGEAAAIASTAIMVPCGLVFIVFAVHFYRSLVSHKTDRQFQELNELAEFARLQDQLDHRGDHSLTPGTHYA

| IC50 [1] | Compound | IC50 [2] |
| --- | --- | --- |
| 3 nM | O=C(Nc1c(F)cccc1F)c1ccc(-c2cc(C(F)(F)F)ccc2Cl)s1 [Compound 1, 5-(2-Chloro-5-trifluoromethyl-phenyl)-thiophene-2-carboxylic acid (2,6-difluoro-phenyl)-amide] |  |
| 14 nM | Cc1cnccc1NC(=O)c1ccc(-c2cc(C(F)(F)F)ccc2Cl)s1 [Compound 2, 5-(2-Chloro-5-trifluoromethyl-phenyl)-thiophene-2-carboxylic acid (3-methyl-pyridin-4-yl)-amide] |  |
| 6.4 nM | COC(=O)c1ccc(C)c(-c2ccc(C(=O)Nc3c(F)cccc3F)s2)c1 [Compound 3, 3-[5-(2,6-Difluoro-phenylcarbamoyl)-thiophen-2-yl]-4-methyl-benzoic acid methyl ester] |  |
| 58.5 nM | COC(=O)c1ccc(C)c(-c2ccc(C(=O)Nc3ccncc3C)s2)c1 [Compound 4, 4-Methyl-3-[5-(3-methyl-pyridin-4-ylcarbamoyl)-thiophen-2-yl]-benzoic acid methyl ester] |  |
| 16.5 nM | O=C(Nc1ccc(-c2cccc(C(F)(F)F)c2)s1)c1c(F)cccc1F [Compound 117, 2,6-Difluoro-N-[5-(3-trifluoromethyl-phenyl)-thiophen-2-yl]-benzamide] |  |
| 104 nM | COC(=O)c1ccc(C)c(-c2ccc(NC(=O)c3c(F)cccc3F)s2)c1 [Compound 118, 3-[5-(2,6-Difluoro-benzoylamino)-thiophen-2-yl]-4-methyl-benzoic acid methyl ester] |  |
| 94.8 nM | Cc1ccc(-c2ncco2)cc1-c1ccc(NC(=O)c2c(F)cccc2F)s1 [Compound 119, 2,6-Difluoro-N-[5-(2-methyl-5-oxazol-2-yl-phenyl)-thiophen-2-yl]-benzamide] |  |
| 87 nM | COC(=O)c1cccc(-c2sc(NC(=O)c3c(F)cccc3F)cc2C)c1 [Compound 120, 3-[5-(2,6-Difluoro-benzoylamino)-3-methyl-thiophen-2-yl]-benzoic acid methyl ester] |  |
| 164 nM | O=C(Nc1ccc(-c2cccc(-c3cnco3)c2)s1)c1c(F)cccc1F [Compound 121, 2,6-Difluoro-N-[5-(3-oxazol-5-yl-phenyl)-thiophen-2-yl]-benzamide] |  |
|  | COc1ccc(CCCOC(Cn2ccnc2)c2ccc(OC)cc2)cc1 (stereo not shown) [SKF96365] | 4000 nM |
